Experimental data published in patent US11491117B2, “Compounds for the prevention and treatment of glucose intolerance related conditions and obesity” (SORBONNE UNIVERSITÉ, priority 2017, dated 2022).

Tested on: C57BL/6J mice fed control chow diet (CHD) or high fat diet (HFD)
Assay: Chronic subcutaneous infusion in mice fed control chow or high fat diet: body growth, glucose homeostasis (IPGTT), insulin secretion, organ weight, liver triglycerides
Type: in vivo, mouse
Description: Six weeks-old C57BL/6J male mice (Janvier Labs, Courtaboeuf, France) were received and acclimated in specific pathogen free (SPF) maintenance condition. Mice had free access to a standard chow diet (R04-40, Safe, Augy, France) and were kept on 12 h light/dark cycle. After one week, a group of 12 mice was fed control carbohydrate diet (CHD) (D 12450Ki, Research diets, NJ) and a group of 12 mice was fed high fat (60% fat and sucrose) diet (HFD) (D12492i, Research diets, NJ).
After three weeks of metabolite treatment (i.e. four weeks of HFD feeding) an intra-peritoneal glucose tolerance test (IPGTT) (2 g/kg) was performed in conscious mice following an overnight fast. Blood was collected from the tail vein before glucose injection and 15, 30, 60 and 120 minutes afterwards. Additional blood samples were collected during the IPGTT in GK rats 15, 90, 180 and 240 minutes after glucose injection. Blood glucose levels were determined using an Accu-Check® Performa (Roche Diagnostics, Meylan, France). Additional blood samples were collected at base line and 30 minutes after glucose injection in Microvette® CB 300 Lithium Heparin (Sarstedt, Marnay, France). Plasma was separated by centrifugation and stored at −80° C. until insulin radioimmunoassay. Evaluation of overall glucose tolerance was obtained from cumulative glycemia (GCum) and the ΔG, which were determined by the total increment of plasma glucose values during the IPGTT (GCum) and the cumulative glycemia during the test above baseline (ΔG). After six weeks of metabolite treatment, mice were killed by decapitation and organ were dissected and weighed. Half of liver, fat and pancreas samples were snap frozen in liquid nitrogen and stored at −80° C. for molecular studies, and the second half processed for histopathology. All procedures were authorized following review by the institutional ethic committee and carried out under national license condition (Ref 00486.02).
Blood glucose was measured using an Accu-Check® Performa (Roche Diagnostics, Meylan, France) and plasma insulin was determined using Insulin ELISA kits (Mercodia, Uppsala, Sweden). For determination of liver triglycerides, liver samples (100 mg) were homogenized and incubated in NonidetP-40 (5%) and supernatants containing triglycerides were collected. Triglycerides concentration was quantified in the supernatant fraction using a colorimetric assay (ab65336, Abcam, Paris, France) by measuring OD at 570 nm. The ratio NAD/NADH was determined using a quantification kit (MAK037; SigmaAldrich, St Quentin, France) on extracts prepared from 20 mg pancreas tissue. Samples were homogenized in the extraction buffer and clarified by centrifugation. Supernatant was deproteinized by filtration through a 10-kDa cutoff spin filter (Millipore SAS, Molsheim, France). The assay was then performed according to the manufacturer's instructions.
As expected, mice fed HFD rapidly gained more weight than mice fed control diet and developed fasting hyperglycemia and marked glucose intolerance (FIG. 1A-1F).

Cc1ccc(O)c(O)c1 [4-MC, 4-methylcatechol]
adiposity index (retroperitoneal fat pads to body weight) (both diet groups (CHD, HFD), 6 weeks, vs saline): significant reduction
liver triglycerides content (both diet groups, vs saline): significant reduction
cumulative glycemia (both diets, IPGTT, vs saline): reduced
glucose tolerance (both diets, IPGTT, vs saline): improved glucose tolerance
ΔG (both diets, IPGTT, vs saline): reduced
fasting glycemia (both diets, vs saline): reduced
insulin secretion (both diets, vs saline): increased insulin secretion
liver weight (mice fed HFD or control diet): significant reduction
pancreas weight (mice fed HFD or control diet): increased pancreas weight
body growth (mice fed chow diet or HFD, chronic treatment, vs saline): strong reduction
BMI (mice fed chow diet or HFD, vs saline): strong reduction
